Assay results as given in the NIST ThermoML archive (doi:10.1021/je200969r).

Assay: refractive index (other wavelength) (dimensionless)
Conditions: 101.33 kPa, Liquid, Minimum Deviation technique

[2H]O[2H] [water-d2]
refractive index
Conditions	Wavelength=543.5 nm	Wavelength=594.1 nm	Wavelength=632.8 nm
288.35 K	1.33	1.3283	1.3272
293.29 K	1.3298	1.3281	1.327
298.12 K	1.3293	1.3278	1.3267
303.15 K	1.3285	1.3271	1.326
308.09 K	1.328	1.3266	1.3254
313.11 K	1.3275	1.3259	1.3249
318.13 K	1.3269	1.3254	1.3243
323.14 K	1.3263	1.3248	1.3237
328.12 K	1.3251	1.3236	1.3225
333.06 K	1.3244	1.3229	1.3219
337.98 K	1.3237	1.3221	1.3211
